Data on one compound can be found in patent US20250041302A1, “PROLYL HYDROXYLASE DOMAIN INHIBITOR FOR TREATING HEMORRHAGIC OR BURN SHOCK” (THE GOVERNMENT OF THE UNITED STATES, AS REPRESENTED BY THE …, priority 2022, published 2025).

Assay [1] concerns rats with polytrauma and hemorrhagic shock. Put plainly: Oral PHDi prior to polytrauma/hemorrhage, pilot study (FIG. 3). Format: in vivo, Sprague-Dawley rats. The procedure: FIG. 3. The effect of PHDi prior to polytrauma/hemorrhage on lactate level. PHDi (MK-8617, 1 mg/kg) or vehicle was orally applied in rats prior to trauma (n=3-4/group). The lactate in whole blood samples were collected at baseline (BSL), shed hemorrhage blood (HEM), 2- and 4 hours after trauma and measured by iSTAT. […] Values represent as means±SEM.
PHDi (MK-8617, 500 microgram per rat) was orally applied prior to trauma, and the lactate (measured by iSTAT) was measured at baseline, 2 and 4 hours after trauma.
Model-1, acute sub-lethal hemorrhagic shock with polytrauma (40% hemorrhage, fast speed hemorrhage at >1 ml/min, target MAP at 35-40 mmHg for 30 min): This model has intensive tissue damage and transient compensated hemorrhagic shock, and the animals survived for 4 hours after trauma without resuscitation or any intervention. The death occurs after 4 hours after trauma.
Briefly, Sprague-Dawley rats (350-450 gram) were anesthetized with isoflurane/100% oxygen through a nosecone and allowed to breathe spontaneously. Cannulas were placed in the left femoral artery and vein for measurement of arterial blood pressure and to obtain vascular access (blood draw and resuscitation and drug administration) respectively. Polytrauma was induced by laparotomy, crush injury to the small intestines, the left and medial liver lobes, and the right leg skeletal muscle and by fracture of the right femur. In detail, a midline incision was made through the abdominal skin and underlying muscle layers. A 10-cm section of small intestines was isolated just anterior to the cecum and run gently through a clamp covered with silastic tubing with a 2-mm distance between the clamps to cause a gentle crush injury. The right and medial lobes of the liver will receive three crushes to each lobe using the same clamp. The intestines and liver were replaced, and the abdominal incision was closed with sutures in two layers. To fracture the […], a modification of a 3-point impact device was used by dropping six stainless-steel balls (65 g each) stacked together, from 36 inches through a guide tube (1 inch internal diameter) to impact on a rounded aluminum blade resting on the mid-right femur with the right leg resting on two aluminum stands, one under the hip and one under the knee. A large hemostat (5 in tongs) was used to clamp the muscle of the right leg 10 times. The crush injury was intended to cause microvascular damage, as opposed to cutting, chopping, or mincing of the tissue, which would have led to uncontrolled hemorrhage. The polytrauma was performed about 10 min followed immediately by hemorrhage. […]
The lactate in whole blood samples were collected at baseline (BSL), shed hemorrhage blood (HEM), 2- and 4 hours after trauma, and the lactate was measured by iSTAT. […]

Assay [2] concerns polytrauma/hemorrhage rodent model. Put plainly: Intravenous PHDi at 20 min after polytrauma/hemorrhage (FIG. 6). Format: in vivo, rat. As to the method: FIG. 6. The effect of intravenous administration of PHDi after polytrauma/hemorrhage. PHDi (MK-8617, 1 mg/kg, n=8) or vehicle (n=7) was administered intravenously at 20 min after trauma. (FIG. 6A) Mean arterial pressure (MAP); (FIG. 6B) Lactate (hyperlactatemia); (FIG. 6C) Prothrombin time (PT, acute traumatic coagulopathy); and (FIG. 6D) Fibrinogen level.
PHDi (MK-8617, 1 mg/ml in 500 μL of 5% DMSO, 10% PEG 400, and 85% normal saline, average dose 1.26±0.05 mg/kg, n=8), or vehicle (n=7) was administered intravenously at 20 min after trauma. The surviving animals were euthanized 4 hours after trauma.

In assay [3] the test system is rats with lethal hemorrhagic shock. Put plainly: Intravenous PHDi in lethal hemorrhagic shock, fixed-volume hemorrhage 65% EBV, FWB at 60 min (FIG. 7-10). Format: in vivo, Sprague-Dawley rats. As to the method:
For the experiments in this disclosure, fixed-volume hemorrhage (65% estimated blood volume (EBV)) was performed in isoflurane anesthetized Sprague-Dawley rats. In this model, the initial 40% of total volume of hemorrhage was performed by continuous blood draw using syringe pump within first 2 min, followed by manually repeatedly drawing 1.5 ml of whole blood every 2 min at 10 min, and 1 ml of whole blood every 3 min thereafter until achieving the targeted volume of hemorrhage, and thus 40% bleeding occurs within the first 2 minutes (fast hemorrhage), another 40% between 2-10 minutes, and the rest 20% between 10-22 minutes (slow hemorrhage).
Then, the animals were treated with 500 u L PHDi (MK-8617 at 1 mg/ml, in a dissolvent composed of 5% DMSO, 10% PEG 400, and 85% normal saline, average dose at 1.24±0.07 mg/kg) or vehicle (n=13 each) intravenously at 20 min after hemorrhage. At 60 min after hemorrhage, surviving animals were resuscitated with fresh whole blood (FWB, 20% EBV) using shed blood collected at 2 min after hemorrhage. The 60 min- or 4 hour survivability was analyzed
For the measurement of metabolites (lactate and HCO3) and ATP, blood samples were harvested at time point 0 (baseline), 20 minutes (prior to PHDi), 60 minutes (prior to fresh whole blood (FWB)), and 240 minutes after polytrauma/hemorrhage.

Entries after “also recorded” stand apart in the source; their conditions may differ.

Take `COc1ccc(C(NC(=O)c2cnc(-c3cccnn3)nc2O)c2ccc(OC)cc2)cc1` [MK-8617, N-[Bis(4-methoxyphenyl)methyl]-4-hydroxy-2-(pyridazin-3-yl)pyrimidine-5-carboxamide]: the “average levels of lactate attenuated as compared with vehicle” value in assay [1] (2 and 4 hr after trauma, oral prior to trauma) is “about 30%”. Further, in assay [1] (4 hours after trauma), the survival entry is recorded as “all animals survived after 4 hours”. The “lactate in whole blood (iSTAT)” value in assay [1] (4 hours after trauma, MK-8617 1 mg/kg orally prior to trauma, n=4) was 2.365 ± 0.733 mmol/L. Moreover, the “rise of lactate” value in assay [1] (oral MK-8617 1 mg/kg prior to trauma, 1 mg/kg) is “attenuated the rise of lactate; also recorded: mitigating the elevation of lactate; also recorded: attenuates lactate levels”. In assay [2] (after treatment, MK-8617 i.v. 1.26±0.05 mg/kg at 20 min after trauma, n=8), the “mean arterial pressure (MAP) compared with vehicle” value is recorded as “significantly higher”. Besides, the “reduction in the elevation of lactate as compared with vehicle” value in assay [2] (at 60 min, i.v. at 20 min after trauma) was “about 30%”; in assay [3] (at 60 min), “about 30%”. The “prothrombin time (PT, acute traumatic coagulopathy)” value in assay [2] (i.v. at 20 min after trauma) was “reduced the prolongation of prothrombin time”. In assay [3] (10 min after treatment, i.v. 1.24±0.07 mg/kg at 20 min after hemorrhage, vehicle 31.3±1.1, p=0.02), this compound showed an MAP of 35.9±1.2 mmHg. In addition, the “MAP after whole blood resuscitation (FWB)” value in assay [3] (PHDi treated animals, FWB at 60 min) is recorded as “partial restoration of MAP”. In addition, in assay [3] (acute administration), the time to death result is given as “extends the time to death”. Further, the “lactate after whole blood resuscitation” value in assay [3] (at 4 hr after transfusion) was “reduced lactate”. In assay [3] (n=13, vehicle 15%, p=0.03), this compound showed a 60 min survivability of 62%. For the same compound, the “prothrombin time (PT)” value in assay [3] (surviving animals at 60 min and 4 hours followed by whole blood resuscitation) is recorded as “significantly elevated”. For the same compound, the “animals surviving for 4 hours after hemorrhage among those that received whole blood resuscitation” value in assay [3] (vehicle 1 of 2, p=0.036) was 6 of 8.
